BigSolDB 2.1

CC(C)(C)NCC(O)c1ccc(O)c(CO)c1 (stereo not given)
solubility (mole fraction)
Settings	in acetone	in ethanol	in ethyl acetate	in isobutanol	in isopropanol	in methanol	in methyl acetate	in n-butanol	in n-propanol	in sec-butanol
283.15 K	0.000146	0.00218	0.000185	0.00154	0.00185	0.00599	0.000377	0.00109	0.00212	0.00102
288.15 K	0.000162	0.00228	0.000204	0.00172	0.00205	0.00671	0.00041	0.0012	0.00235	0.00115
293.15 K	0.000185	0.00271	0.000231	0.00192	0.00244	0.00745	0.000441	0.00134	0.00267	0.00131
298.15 K	0.000211	0.00323	0.000261	0.00217	0.00278	0.00824	0.000471	0.00151	0.00317	0.00145
303.15 K	0.000237	0.00412	0.00029	0.00243	0.00331	0.00909	0.000509	0.00168	0.0036	0.00163
308.15 K	0.000271	0.0049	0.000323	0.00272	0.00382	0.0101	0.000545	0.00187	0.00413	0.00182
313.15 K	0.000302	0.00585	0.000363	0.00304	0.00441	0.0112	0.00059	0.00211	0.00479	0.00202
318.15 K	0.000346	0.00709	0.000399	0.00343	0.00512	0.0124	0.000631	0.00233	0.00552	0.00227
323.15 K	0.000396	0.00846	0.000452	0.00385	0.00597	0.0137	0.000682	0.00262	0.00634	0.00252
328.15 K	0.000451	0.0103	0.000501	0.00432	0.00698	0.0152	0.000735	0.00292	0.00743	0.00286
